Measured values published in US20180325889A1, “IMMUNOREGULATORY AGENTS” (FLEXUS BIOSCIENCES, INC., priority 2014, published 2018).

The molecules below were run against T1, human IDO1/HEK293 cells (Homo sapiens, UniProt P14902) (assay: HEK Human IDO-1 cell-based IDO inhibition assay (kynurenine production)). Settings: HEK293 cells stably expressing human IDO1, 20 hours incubation, absorbance at 490 nm; read-out: HEK Human IDO-1 Bio Activity (IDO IC50).
T1 construct: expressed in transfected cells
T1 sequence (P14902 whole entry): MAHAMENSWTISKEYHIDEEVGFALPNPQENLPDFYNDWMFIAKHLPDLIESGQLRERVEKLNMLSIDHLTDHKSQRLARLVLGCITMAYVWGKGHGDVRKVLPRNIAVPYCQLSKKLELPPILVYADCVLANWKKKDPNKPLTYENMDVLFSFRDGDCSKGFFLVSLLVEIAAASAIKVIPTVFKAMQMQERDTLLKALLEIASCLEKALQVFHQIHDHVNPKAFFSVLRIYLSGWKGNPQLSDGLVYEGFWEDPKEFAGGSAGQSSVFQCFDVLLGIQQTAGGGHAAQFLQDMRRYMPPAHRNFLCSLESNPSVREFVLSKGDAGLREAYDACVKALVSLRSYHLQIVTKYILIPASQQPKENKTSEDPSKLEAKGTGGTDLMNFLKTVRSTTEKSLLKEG
Method: They were cultured in medium (DMEM with 10% FBS) containing 1 mg/ml G418 for two weeks.
The human IDO1/HEK293 cells were seeded at 10,000 cells per 50 μL per well with RPMI/phenol red free media contains 10% FBS in a 384-well black wall clear bottom tissue culture plate (Matrix Technologies LLC) 100 nL of certain concentration of compound was then added to each well using ECHO liquid handling systems. The cells were incubated for 20 hours in 37° C. incubator with 5% CO2.
The compound treatments were stopped by adding trichloroacetic acid (Sigma-Aldrich) to a final concentration at 0.2%. The cell plate was further incubated at 50° C. for 30 minute. The equal volume supernatant (20 μL) and 0.2% (w/v) Ehrlich reagent (4-dimethylaminobenzaldehyde, Sigma-Aldrich) in glacial acetic acid were mixed in a new clear bottom 384-well plate. This plate was then incubated at room temperature for 30 minute. The absorbance at 490 nm was measured on Envision plate reader.
Work on CCC(NC(=O)c1ccc(Cl)cc1)C1CCC(c2cccc(C(F)F)n2)CC1 (mixture of isomers) [Example 231a, 4-chloro-N-(1-(4-(6-(difluoromethyl)pyridin-2-yl)cyclohexyl)propyl)benzamide] yielded an IC50 of less than 250 nM.
Molecule CCC(NC(=O)c1ccc(Cl)cc1)[C@H]1CC[C@H](Oc2ccnc3ccccc23)CC1 (mixture of isomers) [Example 71, 4-Chloro-N-(1-((trans)-4-(quinolin-4-yloxy)cyclohexyl)propyl)benzamide] has an IC50 of less than 50 nM.
CCC(NC(=O)c1ccc(Cl)cc1)[C@H]1CC[C@@H](Oc2ccncc2)CC1 (mixture of isomers) [Example 77a, (±)-4-Chloro-N-(1-((cis)-4-(pyridin-4-yloxy)cyclohexyl)propyl)benzamide] showed an IC50 of less than 250 nM.
Work on CCC(NC(=O)c1ccc(Cl)cc1)[C@H]1CC[C@@H](Oc2ccnc3ccc(C(F)(F)F)cc23)CC1 (mixture of isomers) [Example 78, (±)-4-Chloro-N-(1-((cis)-4-((6-(trifluoromethyl)quinolin-4-yl)oxy)cyclohexyl)propyl)benzamide] yielded an IC50 of less than 2000 nM.
Cc1nccc(O[C@H]2CC[C@H](C(C)NC(=O)c3ccc(Cl)cc3)CC2)c1Cl (mixture of isomers) [Example 207, rac-4-chloro-N-(1-((trans)-4-((3-chloro-2-methylpyridin-4-yl)oxy)cyclohexyl)ethyl)benzamide] showed an IC50 of less than 50 nM.
With Cc1nccc(OC2CCC(C(C)NC(=O)c3ccc(F)cc3)CC2)c1Cl (racemic) [Example 208] the IC50 was less than 250 nM.
COc1ccc(C(=O)NC(C)C2CCC(Oc3ccnc(C)c3Cl)CC2)cc1 (racemic) [Example 209] was tested, and the IC50 was less than 250 nM.
In the case of Cc1ccc(C(=O)NC(C)C2CCC(Oc3ccnc(C)c3Cl)CC2)cc1 (racemic) [Example 210], the IC50 is reported as less than 250 nM.
Work on CCC(NC(=O)c1ccc(-c2ccccc2)cc1)[C@H]1CC[C@@H](c2ccnc3ccc(C(F)(F)F)cc32)CC1 (mixture of isomers) [Example 230, N-(1-((1s,4s)-4-(6-(trifluoromethyl)quinolin-4-yl)cyclohexyl)propyl)biphenyl-4-carboxamide] yielded an IC50 of less than 50 nM.
In the case of Cc1cc(C2CCC(C(C)NC(=O)c3ccc(Cl)cc3)CC2)ccn1 (single isomer, unassigned) [Example 157b, 4-Chloro-N-(1-(4-(2-methylpyridin-4-yl)cyclohexyl)ethyl) Benzamide], the IC50 is reported as less than 50 nM.
In the case of Cc1cc(C2CCC(C(C)NC(=O)c3ccc(Cl)cc3)CC2)ccn1 (single isomer, unassigned) [Example 157c, 4-Chloro-N-(1-(4-(2-methylpyridin-4-yl)cyclohexyl)ethyl) Benzamide], the IC50 is reported as less than 2000 nM.
Cc1cc(C2CCC(C(C)NC(=O)c3ccc(Cl)cc3)CC2)ccn1 (single isomer, unassigned) [Example 157d, 4-Chloro-N-(1-(4-(2-methylpyridin-4-yl)cyclohexyl)ethyl) Benzamide] gave an IC50 of less than 2000 nM.
In the case of Cc1cc(C2CCC(C(C)NC(=O)c3ccc(Cl)cc3)CC2)ccn1 (single isomer, unassigned) [Example 157e, 4-Chloro-N-(1-(4-(2-methylpyridin-4-yl)cyclohexyl)ethyl) Benzamide], the IC50 is reported as less than 2000 nM.
CCC(NC(=O)c1ccc(Cl)cc1)C1CCC(c2ccnc3ccc(F)cc23)CC1 (single isomer, unassigned) [Example 164a, 4-Chloro-N-(1-(4-(6-fluoroquinolin-4-yl)cyclohexyl)propyl)benzamide] gave an IC50 of less than 250 nM.
With CCC(NC(=O)c1ccc(Cl)cc1)C1CCC(c2ccnc3ccc(F)cc23)CC1 (single isomer, unassigned) [Example 164b, 4-Chloro-N-(1-(4-(6-fluoroquinolin-4-yl)cyclohexyl)propyl)benzamide] the IC50 was less than 50 nM.
For CCC(NC(=O)c1ccc(Cl)cc1)C1CCC(c2ccnc3ccc(F)cc23)CC1 (single isomer, unassigned) [Example 164c, 4-Chloro-N-(1-(4-(6-fluoroquinolin-4-yl)cyclohexyl)propyl)benzamide], the IC50 was less than 50 nM.
In the case of CCC(NC(=O)c1ccc(Cl)cc1)C1CCC(c2ccnc3ccc(F)cc23)CC1 (single isomer, unassigned) [Example 164d, 4-Chloro-N-(1-(4-(6-fluoroquinolin-4-yl)cyclohexyl)propyl)benzamide], the IC50 is reported as less than 50 nM.
CCC(NC(=O)c1ccc(C#N)cc1)C1CCC(c2ccnc3ccc(F)cc23)CC1 (single isomer, unassigned) [Example 165a, 4-Cyano-N-(1-(4-(6-fluoroquinolin-4-yl)cyclohexyl)propyl)benzamide] gave an IC50 of less than 2000 nM.
CCC(NC(=O)c1ccc(C#N)cc1)C1CCC(c2ccnc3ccc(F)cc23)CC1 (single isomer, unassigned) [Example 165b, 4-Cyano-N-(1-(4-(6-fluoroquinolin-4-yl)cyclohexyl)propyl)benzamide] gave an IC50 of less than 50 nM.
CCC(NC(=O)c1ccc(C#N)cc1)C1CCC(c2ccnc3ccc(F)cc23)CC1 (single isomer, unassigned) [Example 165c, 4-Cyano-N-(1-(4-(6-fluoroquinolin-4-yl)cyclohexyl)propyl)benzamide] gave an IC50 of less than 50 nM.
In the case of CCC(NC(=O)c1ccc(C#N)cc1)C1CCC(c2ccnc3ccc(F)cc23)CC1 (single isomer, unassigned) [Example 165d, 4-Cyano-N-(1-(4-(6-fluoroquinolin-4-yl)cyclohexyl)propyl)benzamide], the IC50 is reported as less than 50 nM.
For CC[C@@H](NC(=O)c1ccc(Cl)cc1)[C@H]1CC[C@@H](c2cnc3ccccc3c2)CC1 (single isomer, unassigned) [Example 203a], the IC50 was less than 2000 nM.
Molecule CC[C@H](NC(=O)c1ccc(Cl)cc1)[C@H]1CC[C@@H](c2cnc3ccccc3c2)CC1 (single isomer, unassigned) [Example 203b] has an IC50 of less than 250 nM.
In the case of CC[C@@H](NC(=O)c1ccc(Cl)cc1)[C@H]1CC[C@H](c2cnc3ccccc3c2)CC1 (single isomer, unassigned) [Example 203c], the IC50 is reported as less than 50 nM.
CC[C@H](NC(=O)c1ccc(Cl)cc1)[C@H]1CC[C@H](c2cnc3ccccc3c2)CC1 (single isomer, unassigned) [Example 203d] showed an IC50 of less than 50 nM.
CC(NC(=O)c1ccc(Cl)cc1)C1CCC(c2ccnc(C(F)(F)F)c2)CC1 (single isomer, unassigned) [Example 212, 4-chloro-N-(1-(4-(2-(trifluoromcthyl)pyridin-4-yl)cyclohexyl)ethyl)benzamide] gave an IC50 of less than 2000 nM.
For CC(NC(=O)c1ccc(Cl)cc1)C1CCC(c2ccnc(C(F)(F)F)c2)CC1 (single isomer, unassigned) [Example 213, 4-chloro-N-(1-(4-(2-(trifluoromethyl)pyridin-4-yl)cyclohexyl)ethyl)benzamide], the IC50 was less than 50 nM.
CC(NC(=O)c1ccc(Cl)cc1)C1CCC(c2ccnc(C(F)(F)F)c2)CC1 (single isomer, unassigned) [Example 214, 4-chloro-N-(1-(4-(2-(trifluorornethyl)pyridin-4-yl)cyclohexyl)ethyl)benzamide] showed an IC50 of less than 250 nM.
CC(NC(=O)c1ccc(Cl)cc1)C1CCC(c2ccnc(C(F)(F)F)c2)CC1 (single isomer, unassigned) [Example 215, 4-chloro-N-(1-(4-(2-(trifluoromcthyl)pyridin-4-yl)cyclohcxyl)ethyl)benzamide] showed an IC50 of less than 2000 nM.
With CC(NC(=O)c1ccc(Cl)cc1)C1CCC(c2ccc(C(F)(F)F)nc2)CC1 (single isomer, unassigned) [Example 217, 4-chloro-N-(1-(4-(6-(trifluoromethyl)pyridin-3-yl)cyclohexyl)ethyl)benzamide] the IC50 was less than 2000 nM.
CC(NC(=O)c1ccc(Cl)cc1)C1CCC(c2ccc(C(F)(F)F)nc2)CC1 (single isomer, unassigned) [Example 218, 4-chloro-N-(1-(4-(6-(trifluoromethyl)pyridin-3-yl)cyclohexyl)ethyl)benzamide] gave an IC50 of less than 2000 nM.
CC(NC(=O)c1ccc(Cl)cc1)C1CCC(c2ccc(C(F)(F)F)nc2)CC1 (single isomer, unassigned) [Example 219, 4-chloro-N-(1-(4-(6-(trifluoromethyl)pyridin-3-yl)cyclohexyl)ethyl)benzamide] gave an IC50 of less than 250 nM.
CC(NC(=O)c1ccc(Cl)cc1)C1CCC(c2ccc(C(F)(F)F)nc2)CC1 (single isomer, unassigned) [Example 220, 4-chloro-N-(1-(4-(6-(trifluoromethyl)pyridin-3-yl)cyclohexyl)ethyl)benzamide] showed an IC50 of less than 250 nM.
Work on Cc1c(C2CCC(C(C)NC(=O)c3ccc(-c4ccccc4)cc3)CC2)ccnc1F (single isomer, unassigned) [Example 222, N-(1-(4-(2-fluoro-3-methylpyridin-4-yl)cyclohexyl)ethyl)-[1,1′-biphenyl]-4-carboxamide] yielded an IC50 of less than 2000 nM.
In the case of Cc1c(C2CCC(C(C)NC(=O)c3ccc(-c4ccccc4)cc3)CC2)ccnc1F (single isomer, unassigned) [Example 223, N-(1-(4-(2-fluoro-3-methylpyridin-4-yl)cyclohexyl)ethyl)-[1,1′-biphenyl]-4-carboxamide], the IC50 is reported as less than 50 nM.
In the case of Cc1c(C2CCC(C(C)NC(=O)c3ccc(-c4ccccc4)cc3)CC2)ccnc1F (single isomer, unassigned) [Example 224, N-(1-(4-(2-fluoro-3-methylpyridin-4-yl)cyclohexyl)ethyl)-[1,1′-biphenyl]-4-carboxamide], the IC50 is reported as less than 250 nM.
Molecule CCC(NC(=O)c1ccc(Cl)cc1)C1CCC(c2cccc(C(F)F)n2)CC1 (single isomer, unassigned) [Example 231b, 4-chloro-N-(1-(4-(6-(difluoromethyl)pyridin-2-yl)cyclohexyl)propyl)benzamide] has an IC50 of less than 2000 nM.
